“And” between values parts separate entries of the source, which are not always exact repeats. Equal entries are not always repeated.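 Test compounds were applied to cells in 96-well plates for 48 hours at 5 doses. GI50 is the concentration that inhibits growth by half. TGI: concentration producing complete growth inhibition.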
Tested on: SF-295 CNS
Test: growth of human tumour cells (NCI), 48 h

Row | SMILES | GI50 [µM] | TGI
1 | CCC[CH2][Sn]1([CH2]CCC)[O]CC(CN2CCCC2)[O]1 (stereo not drawn) | 14.5 | 28.2 µM
2 | CC1(C)C(=O)N(CCCCCCN2C(=O)C(C)(C)c3ccccc32)c2ccccc21 | – | > 100 µM
3 | COc1cc2c(c(OC)c1OC)-c1ccc(OC)c(=O)cc1[C@@H](NC(=O)c1ccccc1)CC2 | 0.00623 | –
4 | NCCCCN(CCCN)/[N+]([O-])=N\O | – | > 100 µM
5 | CCOc1ccccc1NC(=O)CC(C(=O)OC)C(=O)C(=O)OC (stereo not drawn) | – | > 100 µM
6 | COc1cccc2c1C(=O)c1c(O)c3c(c(O)c1C2=O)C[C@@](O)(C(C)=O)C[C@@H]3OC1OC(C)C(O)C(N)C1Br (stereo partly drawn) | 0.0159 | 0.419 µM and 0.194 µM
7 | COC(=O)C1=C(C)N(NC(=O)OC(C)(C)C)C(=O)C1=P(c1ccccc1)(c1ccccc1)c1ccccc1 | – | > 100 µM
8 | O=C1OC(c2ccccc2)=N/C1=C\c1cccc2ccccc12 | – | > 100 µM
9 | Cc1cccc(NC(=O)/C(=N\NC(C)(C)C)C2NC(=S)NC2=O)c1C (stereo not drawn) | – | > 100 µM
10 | C[C@@H]1CC(=O)C2CCCC1C2=O (stereo partly drawn) | – | > 100 µM
11 | c1ccc(CNn2nnc3ccccc32)cc1 | – | > 100 µM
12 | CN(C)C(=O)c1cc2cnc(Nc3ccc(-c4csc5c(=S)cc(N6CCOCC6)oc45)cc3)nc2n1C1CCCC1 | 0.672 | > 13.5 µM
13 | COC1=CC(=O)c2nc(-c3cccc(C)n3)[nH]c2C1=O | 28.4 | 85.2 µM

Tested on: UACC-257 melanoma
Test: growth of human tumour cells (NCI), 48 h

Row | SMILES | TGI | GI50 [µM]
14 | Cc1nc(N)sc1C(=O)/C=C\c1ccc2c(c1)OCO2 | > 100 µM | –
15 | COc1cc(C(C)O)c[n+](CCc2c[nH]c3ccccc23)c1 (stereo not drawn) | > 100 µM | –
16 | CC1(C)SCc2nc3ncccc3n21 | > 100 µM | –
17 | Cn1c(=O)c(C(c2ccc([N+](=O)[O-])cc2)c2c(O)c3ccccc3n(C)c2=O)cc2ccccc21 (stereo not drawn) | 45.3 µM | –
18 | Cc1cn(C2CC(O)C(CO)O2)c(=O)n2nnnc12 (stereo not drawn) | > 100 µM | –
19 | COc1ccc(C(=O)C(C(=O)CCC(=O)Nc2cccc(Cl)c2)c2ccc(OC)cc2)cc1 (stereo not drawn) | > 100 µM | –
20 | CCOC(=O)C1=C(C)N(NC(=O)Nc2ccccc2)C(=O)C1=P(c1ccccc1)(c1ccccc1)c1ccccc1 | > 100 µM | –
21 | COc1cc(C=C2C(=O)NC(=O)NC2=O)cc(OC)c1OC | > 100 µM | –
22 | Nn1c(=O)n(Cc2ccccc2)n(-c2ccccc2)c1=O | > 100 µM | –
23 | Cc1ccc(C2=C(c3ccccc3)C(Br)(c3ccc(C)cc3)C(c3ccccc3)=C2c2ccc(C)cc2)cc1 | > 100 µM | –
24 | N#CCN1C(=O)c2cccc3cc([N+](=O)[O-])cc(c23)C1=O | 83.1 µM | –
25 | O=C1CCN2C(=O)CCN12 | > 100 µM | –
26 | CC1CC[C@]2(C(=O)O)CCC3(C)C(=CC(=O)C4[C@@]5(C)CCC(=O)C(C)(C)C5CC[C@]43C)[C@@H]2[C@H]1C (stereo partly drawn) | 96.9 µM | –
27 | O=C(O)C1OC(n2cc(F)c(=O)[nH]c2=O)CC1O (stereo not drawn) | > 100 µM | –
28 | CC(C)C(Nc1c2ccccc2nc2ccccc12)C(=O)O (stereo not drawn) | > 100 µM | –
29 | COc1ccccc1CCc1cc(OC)c(OC)c(OC)c1 | > 100 µM | –
30 | COc1cc2c(cc1OC)C(CC(=O)NN=C(C)C)NCC2 (stereo not drawn) | > 100 µM | –
31 | COC(=O)/C(=N\Nc1nnc(C)n1N)C(C#N)c1ccc(Cl)cc1 (stereo not drawn) | > 100 µM | –
32 | Cc1cccc(NC(=O)C(=O)C(C(=O)c2ccc3ccccc3c2)C2OC(=O)c3ccccc32)c1C (stereo not drawn) | 35.1 µM | –

Row | SMILES | TGI | GI50 [µM]
33 | CS/C(N)=N\NC(=O)CCC(=O)Nc1ccccc1C(F)(F)F | > 100 µM | –
34 | CC(=O)/C(C)=N/NC(=O)c1ccccc1O | > 100 µM | > 100
35 | CC(C)(C)c1ccc2c(c1)S(=O)(=O)Nc1ccccc1NS(=O)(=O)c1cc(C(C)(C)C)ccc1OCCOCCOCCO2 | > 100 µM | –
36 | CC(=O)[O-].CCN(CC)c1ccc(C=NCCN=Cc2ccc(N(CC)CC)cc2[O-])c([O-])c1.[Mn+3] | 55.5 µM | 23
37 | NC(N)=N/N=C(\c1nc2ccc([N+](=O)[O-])cc2[nH]c1=O)C(O)c1ccc([N+](=O)[O-])cc1 (stereo not drawn) | > 100 µM | –
38 | CCC[CH2][Sn]1([CH2]CCC)[O]CC(CN2CCCC2)[O]1 (stereo not drawn) | 29.7 µM | 14.3
39 | CC1(C)C(=O)N(CCCCCCN2C(=O)C(C)(C)c3ccccc32)c2ccccc21 | 52 µM | –
40 | COc1cc2c(c(OC)c1OC)-c1ccc(OC)c(=O)cc1[C@@H](NC(=O)c1ccccc1)CC2 | 30 µM and > 100 µM | 24.2
41 | NCCCCN(CCCN)/[N+]([O-])=N\O | > 100 µM | –
42 | CCOc1ccccc1NC(=O)CC(C(=O)OC)C(=O)C(=O)OC (stereo not drawn) | > 100 µM | –
43 | COc1cccc2c1C(=O)c1c(O)c3c(c(O)c1C2=O)C[C@@](O)(C(C)=O)C[C@@H]3OC1OC(C)C(O)C(N)C1Br (stereo partly drawn) | 0.487 µM and 1.14 µM | 0.123
44 | COC(=O)C1=C(C)N(NC(=O)OC(C)(C)C)C(=O)C1=P(c1ccccc1)(c1ccccc1)c1ccccc1 | > 100 µM | –
45 | O=C1OC(c2ccccc2)=N/C1=C\c1cccc2ccccc12 | > 100 µM | –
46 | Cc1cccc(NC(=O)/C(=N\NC(C)(C)C)C2NC(=S)NC2=O)c1C (stereo not drawn) | > 100 µM | –
47 | C[C@@H]1CC(=O)C2CCCC1C2=O (stereo partly drawn) | > 100 µM | –
48 | c1ccc(CNn2nnc3ccccc32)cc1 | > 100 µM | –
49 | CN(C)C(=O)c1cc2cnc(Nc3ccc(-c4csc5c(=S)cc(N6CCOCC6)oc45)cc3)nc2n1C1CCCC1 | > 14.7 µM | 1.24
50 | COC1=CC(=O)c2nc(-c3cccc(C)n3)[nH]c2C1=O | > 100 µM | 65.3

Tested on: XF 498 CNS
Test: growth of human tumour cells (NCI), 48 h

Row | SMILES | TGI | GI50 [µM]
51 | Cc1nc(N)sc1C(=O)/C=C\c1ccc2c(c1)OCO2 | > 100 µM | –
52 | COc1cc(C(C)O)c[n+](CCc2c[nH]c3ccccc23)c1 (stereo not drawn) | > 100 µM | –
53 | CC1(C)SCc2nc3ncccc3n21 | > 100 µM | –
54 | Cn1c(=O)c(C(c2ccc([N+](=O)[O-])cc2)c2c(O)c3ccccc3n(C)c2=O)cc2ccccc21 (stereo not drawn) | > 100 µM | –
55 | COc1ccc(C(=O)C(C(=O)CCC(=O)Nc2cccc(Cl)c2)c2ccc(OC)cc2)cc1 (stereo not drawn) | > 100 µM | –
56 | CCOC(=O)C1=C(C)N(NC(=O)Nc2ccccc2)C(=O)C1=P(c1ccccc1)(c1ccccc1)c1ccccc1 | 95.3 µM | –
57 | COc1cc(C=C2C(=O)NC(=O)NC2=O)cc(OC)c1OC | > 100 µM | –
58 | Nn1c(=O)n(Cc2ccccc2)n(-c2ccccc2)c1=O | > 100 µM | –
59 | Cc1ccc(C2=C(c3ccccc3)C(Br)(c3ccc(C)cc3)C(c3ccccc3)=C2c2ccc(C)cc2)cc1 | > 100 µM | –
60 | N#CCN1C(=O)c2cccc3cc([N+](=O)[O-])cc(c23)C1=O | 68.3 µM | –
61 | O=C1CCN2C(=O)CCN12 | > 100 µM | –
62 | CC1CC[C@]2(C(=O)O)CCC3(C)C(=CC(=O)C4[C@@]5(C)CCC(=O)C(C)(C)C5CC[C@]43C)[C@@H]2[C@H]1C (stereo partly drawn) | 29.5 µM | –
63 | O=C(O)C1OC(n2cc(F)c(=O)[nH]c2=O)CC1O (stereo not drawn) | > 100 µM | –
64 | CC(C)C(Nc1c2ccccc2nc2ccccc12)C(=O)O (stereo not drawn) | > 100 µM | –
65 | COc1ccccc1CCc1cc(OC)c(OC)c(OC)c1 | 84.8 µM | –
66 | COc1cc2c(cc1OC)C(CC(=O)NN=C(C)C)NCC2 (stereo not drawn) | > 100 µM | –
67 | COC(=O)/C(=N\Nc1nnc(C)n1N)C(C#N)c1ccc(Cl)cc1 (stereo not drawn) | > 100 µM | –
68 | Cc1cccc(NC(=O)C(=O)C(C(=O)c2ccc3ccccc3c2)C2OC(=O)c3ccccc32)c1C (stereo not drawn) | 9.47 µM | –
69 | CC(=O)/C(C)=N/NC(=O)c1ccccc1O | > 10 µM | –
70 | NC(N)=N/N=C(\c1nc2ccc([N+](=O)[O-])cc2[nH]c1=O)C(O)c1ccc([N+](=O)[O-])cc1 (stereo not drawn) | > 100 µM | –
71 | CC1(C)C(=O)N(CCCCCCN2C(=O)C(C)(C)c3ccccc32)c2ccccc21 | 53.6 µM | –
72 | COc1cc2c(c(OC)c1OC)-c1ccc(OC)c(=O)cc1[C@@H](NC(=O)c1ccccc1)CC2 | 3.86 µM | –
73 | COc1cccc2c1C(=O)c1c(O)c3c(c(O)c1C2=O)C[C@@](O)(C(C)=O)C[C@@H]3OC1OC(C)C(O)C(N)C1Br (stereo partly drawn) | 0.414 µM and 0.423 µM | 0.0766
74 | COC(=O)C1=C(C)N(NC(=O)OC(C)(C)C)C(=O)C1=P(c1ccccc1)(c1ccccc1)c1ccccc1 | > 100 µM | –
75 | O=C1OC(c2ccccc2)=N/C1=C\c1cccc2ccccc12 | > 100 µM | –
76 | c1ccc(CNn2nnc3ccccc32)cc1 | > 100 µM | –
